Calls of active or inactive are those of the source. The calls are words filed in the database; no cut-off is given here.
Experiments:
[1] = target: Ubiquitin carboxyl-terminal hydrolase 9X (Homo sapiens) (UniProt Q93008); experiment: Inhibition of USP9X (unknown origin) using diubiquitin as a substrate at 0 to 10 uM preincubated for 15 mins followed by substrate addition and measured after 2 hrs by SDS-PAGE analysis; conditions: dose 0-10 µM, time 135.0 min
[2] = target: T1, Ubiquitin carboxyl-terminal hydrolase 15 (Homo sapiens) (UniProt Q9Y4E8); experiment: Inhibition of recombinant human 6His-tagged USP15 using diubiquitin as a substrate at 0 to 10 uM preincubated for 15 mins followed by substrate addition and measured after 2 hrs by SDS-PAGE analysis; conditions: dose 0-10 µM, time 135.0 min
T1 sequence (whole entry): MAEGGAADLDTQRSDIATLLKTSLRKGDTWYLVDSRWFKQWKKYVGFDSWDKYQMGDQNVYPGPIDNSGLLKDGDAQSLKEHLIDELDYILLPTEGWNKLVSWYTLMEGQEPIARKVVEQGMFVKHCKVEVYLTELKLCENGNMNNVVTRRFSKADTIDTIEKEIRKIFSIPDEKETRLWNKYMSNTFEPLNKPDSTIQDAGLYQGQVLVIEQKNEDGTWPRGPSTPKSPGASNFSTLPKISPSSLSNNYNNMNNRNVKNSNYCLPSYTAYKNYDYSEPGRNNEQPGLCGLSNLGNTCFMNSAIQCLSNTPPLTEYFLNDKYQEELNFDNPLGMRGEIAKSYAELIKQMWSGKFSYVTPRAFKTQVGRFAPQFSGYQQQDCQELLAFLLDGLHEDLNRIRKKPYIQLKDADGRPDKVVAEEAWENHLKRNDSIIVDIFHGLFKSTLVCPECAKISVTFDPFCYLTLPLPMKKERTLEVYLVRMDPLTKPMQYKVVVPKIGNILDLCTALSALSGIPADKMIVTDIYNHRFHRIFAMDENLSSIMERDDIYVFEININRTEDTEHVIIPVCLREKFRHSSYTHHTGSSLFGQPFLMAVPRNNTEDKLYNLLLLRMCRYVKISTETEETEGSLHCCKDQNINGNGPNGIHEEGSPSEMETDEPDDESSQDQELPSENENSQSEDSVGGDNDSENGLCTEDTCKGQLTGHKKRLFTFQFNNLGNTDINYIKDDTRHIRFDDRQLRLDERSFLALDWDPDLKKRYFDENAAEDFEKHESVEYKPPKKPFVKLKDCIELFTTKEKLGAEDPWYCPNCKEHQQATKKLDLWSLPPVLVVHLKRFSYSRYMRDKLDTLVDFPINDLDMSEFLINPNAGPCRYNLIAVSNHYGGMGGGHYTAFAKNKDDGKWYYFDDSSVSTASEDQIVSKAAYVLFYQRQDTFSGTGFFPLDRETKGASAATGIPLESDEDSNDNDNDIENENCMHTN

MDA-MB-436 = experiment: Induction of cell cycle arrest in human MDA-MB-436 cells assessed as increase in cells at S phase at 1 uM incubated for 24 hrs by PI staining based flow cytometry analysis; type: functional
[3] = AUC (0 to t) in male ICR mouse at 10 mg/kg, po administered as single dose and measured after 24 hrs; type: ADME, organism-based; conditions: in vivo
[4] = test system: Olaparib-resistant MDA-MB-436; experiment: Inhibition of colony formation in human Olaparib-resistant MDA-MB-436 cell at 100 nM measured after 7 days in the presence of olaparib by SRB staining based assay relative to control; type: functional; conditions: Olaparib-resistant MDA-MB-436, 168 h, time 7 day
[5] = Tmax in male ICR mouse at 10 mg/kg, po administered as single dose and measured after 24 hrs; type: ADME, organism-based; conditions: in vivo
[6] = test system: Olaparib-resistant MDA-MB-436; experiment: Induction of cell cycle arrest in human Olaparib-resistant MDA-MB-436 cell assessed as accumulation of cells in G2/M phase at 1 uM incubated for 24 hrs in the presence of olaparib by PI staining based flow cytometry analysis; type: functional
NCI-H1299 = experiment: Inhibition of colony formation in human NCI-H1299 cells at 0.5 uM measured after 7 days by SRB staining based assay relative to control; type: functional; conditions: NCI-H1299, 168 h, time 7 day
[7] = test system: Olaparib-resistant MDA-MB-436; experiment: Induction of cell cycle arrest in human Olaparib-resistant MDA-MB-436 cell assessed as accumulation of cells in S phase at 1 uM incubated for 24 hrs in the presence of olaparib by PI staining based flow cytometry analysis; type: functional
[8] = target: T2, Ubiquitin carboxyl-terminal hydrolase 1/WD repeat-containing protein 48 (Homo sapiens) (UniProt O94782+Q8TAF3); experiment: Inhibition of USP1/UAF1 in human NCI-H1299 cells assessed as increase in Ub-PCNA levels at 20 nM incubated for 24 hrs by Western blot analysis; type: cell-based
[9] = target: T2, Ubiquitin carboxyl-terminal hydrolase 1/WD repeat-containing protein 48 (Homo sapiens); conditions: NCI-H1299, dose 20-500 nM, time 24.0 hrs
[10] = target: T3, Ubiquitin carboxyl-terminal hydrolase 4 (Homo sapiens) (UniProt Q13107); experiment: Inhibition of recombinant human 6His-tagged USP4 using diubiquitin as a substrate at 0 to 10 uM preincubated for 15 mins followed by substrate addition and measured after 2 hrs by SDS-PAGE analysis; conditions: dose 0-10 µM, time 135.0 min
T3 sequence (whole entry): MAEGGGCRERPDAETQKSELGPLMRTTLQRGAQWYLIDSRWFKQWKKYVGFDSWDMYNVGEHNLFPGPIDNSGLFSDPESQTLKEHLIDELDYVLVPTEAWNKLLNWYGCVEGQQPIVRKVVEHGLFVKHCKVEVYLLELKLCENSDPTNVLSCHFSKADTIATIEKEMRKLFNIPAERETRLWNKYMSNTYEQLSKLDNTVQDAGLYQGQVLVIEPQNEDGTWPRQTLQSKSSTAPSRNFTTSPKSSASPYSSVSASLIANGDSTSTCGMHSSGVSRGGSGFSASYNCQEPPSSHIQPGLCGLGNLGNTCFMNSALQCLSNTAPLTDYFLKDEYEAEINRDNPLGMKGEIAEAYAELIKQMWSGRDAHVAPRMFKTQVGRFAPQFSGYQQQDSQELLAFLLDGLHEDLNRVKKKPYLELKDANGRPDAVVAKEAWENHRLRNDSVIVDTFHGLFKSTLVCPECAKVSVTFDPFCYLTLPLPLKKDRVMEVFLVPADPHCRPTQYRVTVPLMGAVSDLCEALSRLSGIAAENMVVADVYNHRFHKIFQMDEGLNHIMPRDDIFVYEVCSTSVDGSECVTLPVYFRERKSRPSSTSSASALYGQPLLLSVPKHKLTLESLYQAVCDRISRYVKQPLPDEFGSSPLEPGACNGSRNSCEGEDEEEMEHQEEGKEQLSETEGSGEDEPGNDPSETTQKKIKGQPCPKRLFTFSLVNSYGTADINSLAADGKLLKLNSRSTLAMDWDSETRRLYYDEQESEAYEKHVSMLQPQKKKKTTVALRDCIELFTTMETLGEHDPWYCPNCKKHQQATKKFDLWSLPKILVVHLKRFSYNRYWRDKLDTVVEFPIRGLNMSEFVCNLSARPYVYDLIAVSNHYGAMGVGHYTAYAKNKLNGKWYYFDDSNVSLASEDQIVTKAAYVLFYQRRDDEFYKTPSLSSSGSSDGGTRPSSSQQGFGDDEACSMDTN

Chain of Ubiquitin carboxyl-terminal hydrolase 9X (Homo sapiens) (Q93008 whole entry): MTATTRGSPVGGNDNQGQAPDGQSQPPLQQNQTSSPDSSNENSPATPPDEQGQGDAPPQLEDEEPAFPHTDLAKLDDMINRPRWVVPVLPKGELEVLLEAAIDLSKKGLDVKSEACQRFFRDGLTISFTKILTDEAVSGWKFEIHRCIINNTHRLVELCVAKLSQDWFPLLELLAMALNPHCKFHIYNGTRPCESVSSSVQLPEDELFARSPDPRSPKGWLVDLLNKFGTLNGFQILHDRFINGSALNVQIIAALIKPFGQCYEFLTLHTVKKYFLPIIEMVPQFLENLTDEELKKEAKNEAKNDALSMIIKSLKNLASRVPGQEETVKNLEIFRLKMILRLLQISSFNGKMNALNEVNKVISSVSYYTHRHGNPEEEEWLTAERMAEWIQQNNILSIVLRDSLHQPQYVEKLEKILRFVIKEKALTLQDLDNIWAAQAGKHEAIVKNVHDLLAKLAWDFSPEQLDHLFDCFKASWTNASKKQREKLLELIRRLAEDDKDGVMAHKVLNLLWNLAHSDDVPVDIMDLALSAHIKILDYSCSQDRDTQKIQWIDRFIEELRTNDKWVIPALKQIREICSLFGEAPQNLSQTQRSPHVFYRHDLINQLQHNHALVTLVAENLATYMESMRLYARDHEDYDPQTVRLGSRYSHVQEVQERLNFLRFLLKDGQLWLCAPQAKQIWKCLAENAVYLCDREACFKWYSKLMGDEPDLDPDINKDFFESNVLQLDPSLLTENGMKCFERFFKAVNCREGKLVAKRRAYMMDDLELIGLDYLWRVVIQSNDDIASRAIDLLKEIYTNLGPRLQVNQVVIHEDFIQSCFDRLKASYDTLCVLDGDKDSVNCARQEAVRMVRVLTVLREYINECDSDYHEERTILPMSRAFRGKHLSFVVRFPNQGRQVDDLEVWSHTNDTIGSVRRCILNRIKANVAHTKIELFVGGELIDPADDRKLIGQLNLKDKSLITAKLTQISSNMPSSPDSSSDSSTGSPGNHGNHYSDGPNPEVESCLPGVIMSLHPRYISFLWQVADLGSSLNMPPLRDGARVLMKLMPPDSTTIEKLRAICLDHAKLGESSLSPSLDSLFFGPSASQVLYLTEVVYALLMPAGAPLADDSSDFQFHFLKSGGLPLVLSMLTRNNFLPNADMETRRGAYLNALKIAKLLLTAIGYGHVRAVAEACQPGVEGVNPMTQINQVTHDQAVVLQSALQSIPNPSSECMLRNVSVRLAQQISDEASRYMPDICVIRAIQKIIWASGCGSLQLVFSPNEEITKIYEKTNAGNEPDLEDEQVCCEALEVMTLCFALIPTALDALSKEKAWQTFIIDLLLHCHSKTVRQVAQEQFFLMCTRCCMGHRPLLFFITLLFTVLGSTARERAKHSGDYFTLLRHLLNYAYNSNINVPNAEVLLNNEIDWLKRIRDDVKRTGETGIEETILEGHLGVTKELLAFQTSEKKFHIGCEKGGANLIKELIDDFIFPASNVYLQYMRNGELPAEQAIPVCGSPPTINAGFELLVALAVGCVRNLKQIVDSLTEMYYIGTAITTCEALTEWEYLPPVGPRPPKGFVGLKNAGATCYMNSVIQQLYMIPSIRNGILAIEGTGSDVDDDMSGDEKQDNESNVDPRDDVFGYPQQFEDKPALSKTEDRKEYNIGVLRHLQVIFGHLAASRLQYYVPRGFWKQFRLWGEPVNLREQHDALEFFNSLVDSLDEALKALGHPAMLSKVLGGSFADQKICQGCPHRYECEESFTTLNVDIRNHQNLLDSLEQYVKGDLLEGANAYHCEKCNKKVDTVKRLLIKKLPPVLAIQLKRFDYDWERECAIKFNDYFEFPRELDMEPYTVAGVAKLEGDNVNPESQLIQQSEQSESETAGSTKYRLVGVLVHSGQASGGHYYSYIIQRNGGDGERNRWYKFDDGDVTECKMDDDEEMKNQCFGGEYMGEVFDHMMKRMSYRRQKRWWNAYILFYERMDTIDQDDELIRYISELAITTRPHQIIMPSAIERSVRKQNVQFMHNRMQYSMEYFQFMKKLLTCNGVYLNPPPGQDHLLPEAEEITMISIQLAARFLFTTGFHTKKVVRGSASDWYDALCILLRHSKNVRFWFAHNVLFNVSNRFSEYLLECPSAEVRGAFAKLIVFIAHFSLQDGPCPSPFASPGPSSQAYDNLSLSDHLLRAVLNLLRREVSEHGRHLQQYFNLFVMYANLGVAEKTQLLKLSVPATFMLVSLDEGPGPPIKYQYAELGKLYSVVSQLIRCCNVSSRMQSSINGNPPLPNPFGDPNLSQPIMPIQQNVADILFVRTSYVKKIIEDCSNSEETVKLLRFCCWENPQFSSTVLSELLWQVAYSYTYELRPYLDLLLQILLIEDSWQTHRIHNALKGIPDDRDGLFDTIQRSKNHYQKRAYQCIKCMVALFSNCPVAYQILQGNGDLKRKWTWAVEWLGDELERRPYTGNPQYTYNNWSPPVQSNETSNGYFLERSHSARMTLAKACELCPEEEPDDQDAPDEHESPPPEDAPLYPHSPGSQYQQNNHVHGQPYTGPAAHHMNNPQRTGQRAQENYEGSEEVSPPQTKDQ

Structure (SMILES): COc1ncnc(C2CC2)c1-c1ncc2ccc(=O)n(Cc3ccc(-c4nc(C(F)(F)F)cn4C(C)C)cc3)c2n1
- inhibition [1]: inactive
- inhibition [2]: inactive
- Activity (MDA-MB-436): Active
- AUC(0-t) at 24 h [3]: 35800 ng·h/mL
- inhibition at 0.1 µM [4]: 50%
- Tmax [5]: 15 min
- Activity [6]: Active
- inhibition at 0.5 µM (NCI-H1299): 70%
- Activity [7]: Active
- Activity [8]: Active
- inhibition [9]: Dose-Dependent Effect
- inhibition [10]: inactive
